Results taken from patent US20040071783A1, “Methods and apparatus for particle formation” (priority 1998, published 2004).

How the values were obtained:
[1] = Crystallinity by XRPD; type: physicochemical; conditions: XRPD pattern
[2] = Particle size analysis using the Aerosizer/Aerodisperser system; type: physicochemical; conditions: particle size distribution
Experimental: Particle size analysis of the product was carried out using the Aerosizer/Aerodisperser system (API, USA).

[3] = SEM, in comparison

SMILES | crystallinity [1] | SIZE, 5% UNDER [2] | SIZE, 10% UNDER [2] | SIZE, 15% UNDER [2] | SIZE, 20% UNDER [2] | SIZE, 25% UNDER [2] | SIZE, 30% UNDER [2] | SIZE, 35% UNDER [2] | SIZE, 40% UNDER [2] | SIZE, 45% UNDER [2] | SIZE, 50% UNDER [2] | SIZE, 55% UNDER [2] | SIZE, 60% UNDER [2] | SIZE, 65% UNDER [2] | SIZE, 70% UNDER [2] | SIZE, 75% UNDER [2] | SIZE, 80% UNDER [2] | SIZE, 85% UNDER [2] | SIZE, 90% UNDER [2] | SIZE, 95% UNDER [2] | other results
CC(C(=O)O)c1cccc(C(=O)c2ccccc2)c1 (centres unmarked) [Example 4, ketoprofen] | confirmed its crystallinity |  |  |  |  |  |  |  |  |  |  |  |  |  |  |  |  |  |  |  | 
CC(C)Cc1ccc(C(C)C(=O)O)cc1 (centres unmarked) [Example 1a, ibuprofen] |  | 9.241 micron | 11.68 micron | 13.57 micron | 15.21 micron | 16.74 micron | 18.21 micron | 19.62 micron | 20.99 micron | 22.30 micron | 23.58 micron | 24.87 micron | 26.16 micron | 27.48 micron | 28.83 micron | 30.25 micron | 31.76 micron | 33.44 micron | 35.44 micron | 38.65 micron | 
O=C(O)c1ccccc1O [Example 3b, salicylic acid] | crystalline in form |  |  |  |  |  |  |  |  |  |  |  |  |  |  |  |  |  |  |  | 
CC(C)Cc1ccc(C(C)C(=O)O)cc1 (centres unmarked) [Example 1b, ibuprofen] |  | 5.920 micron | 7.411 micron | 8.631 micron | 9.720 micron | 10.75 micron | 11.72 micron | 12.66 micron | 13.56 micron | 14.43 micron | 15.30 micron | 16.18 micron | 17.07 micron | 17.99 micron | 18.94 micron | 19.95 micron | 21.05 micron | 22.25 micron | 23.67 micron | 25.84 micron | 
O=C(O)c1cccnc1 [Example 5b, nicotinic acid] |  |  |  |  |  |  |  |  |  |  |  |  |  |  |  |  |  |  |  |  | particle size and morphology [3]: comparable particle size and morphology to that of the product of Example 5a
CC(C)Cc1ccc(C(C)C(=O)O)cc1 (centres unmarked) [Example 2, ibuprofen] |  | 5.815 micron | 7.327 micron | 8.537 micron | 9.612 micron | 10.62 micron | 11.57 micron | 12.49 micron | 13.38 micron | 14.26 micron | 15.17 micron | 16.10 micron | 17.06 micron | 18.06 micron | 19.10 micron | 20.20 micron | 21.41 micron | 22.79 micron | 24.42 micron | 26.78 micron | 
CC(C)Cc1ccc(C(C)C(=O)O)cc1 (centres unmarked) [Example 1c, ibuprofen] |  | 3.762 micron | 4.462 micron | 5.018 micron | 5.518 micron | 5.999 micron | 6.479 micron | 6.966 micron | 7.471 micron | 8.004 micron | 8.572 micron | 9.186 micron | 9.849 micron | 10.55 micron | 11.28 micron | 12.06 micron | 12.92 micron | 13.88 micron | 14.96 micron | 16.35 micron | 
O=C(O)c1ccccc1O [Example 3a, salicylic acid] | crystalline |  |  |  |  |  |  |  |  |  |  |  |  |  |  |  |  |  |  |  | 
